{"source": "patent US6410545B1", "about": "“Lipid lowering quinazoline dietary supplement composition” (Parker Hughes Institute, priority 1998, dated 2002)", "type_in_all_cases": "in vivo", "key": {"[1]": {"tested_on": "C57B⅙ mice", "assay": "Postprandial triglyceride accumulation after 36 hour fast", "conditions": "40 mg/kg/day for 7 days", "experimental": "FIG. 5 is a graph showing inhibition of postprandial triglyceride accumulation by WHI-P164 treatment. C57B⅙ mice were treated with WHI-P164 at 40 mg/kg/day for 7 days, and fasted 36 hours with continuing treatment. […].\nC57B⅙ and apoE-deficient mice were treated with intraperitoneal injections of 50 μl vehicle or 40 mg/kg WHI-P164 in 50 μl vehicle for 7 consecutive days, followed by a 36 hour fast to shut down intestinal chylomicron synthesis. […] Blood samples were taken at 0 and 4 hours after Triton WR1339 injection and plasma TG levels were measured enzymatically using a commercially available enzymatic kit (Sigma Chemical Co.). Alternatively, food was returned to the mice after a 36 hour fast and blood samples were collected at 0, 1, 3, 6, and 9 hours after returning the food. Accumulation of chylomicron-TG was determined as accumulation of plasma TG.\nInhibition reached statistical significance at 6 hours in vehicle treated mice having a plasma TG level of 272±25 mg/dL, n=5, as compared to a plasma TG level of 155±32 mg/dL, n=5, p=0.004 in WHI-P164 treated mice."}, "[2]": {"tested_on": "apo e−/− mice", "assay": "Serum total cholesterol in apolipoprotein E deficient mice", "conditions": "for Mean serum total cholesterol: apo e−/− mice, 8 mg/kg/day, one week", "experimental": "Three- to four-week old apolipoprotein E deficient (apo E^−/−) mice were the progeny of breeding pairs of apo E knockout (apo EKO) mice obtained from Jackson Labs. (Bar Harbor, Me., USA). Mice were fed either regular rodent chow (5% fat and 0% cholesterol) (Teklad-LM 485, Harlan Teklad, Madison, Wis., USA), the Paigen's cocoa butter diet, or the Western diet (21.22% fat and 0.2% cholesterol) (Harlan Teklad, Madison, Wis., USA) for two weeks prior to treatment.\n(§1) Animals were treated with test compounds by intraperitoneal injection daily for 7 days. A range of doses was administered. Control animals received vehicle alone. The effect of quinazoline derivatives on total cholesterol, LDL, HDL, liver enzymes, and glucose was analyzed. The mice tissues were also examined histologically.\n(§2) Serum total cholesterol was measured enzymatically using the cholesterol kit from Sigma Chemical Co. (St. Louis, Mo., USA). For liver tissue lipid measurements, lipids were extracted from homogenized hepatic tissues using the method of Bligh and Dyer (Bligh, et al., Can. J. Biochem. Phys. 1959, 37:911-917). One gram of liver tissue was homogenized in 1 ml of distilled water and extracted with 4 ml of chloroform/methanol (1:1, v/v). The chloroform phase containing the lipids was evaporated under a stream of nitrogen, the lipids dissolved in 100 μL of isopropanol, and subjected to cholesterol determination as described above. Triglyceride (TG) contents were determined using the TG kit from Sigma Chemical Co.\nOn regular rodent chow, the serum total cholesterol level of apo e^−/− mice was 836±57 mg/dL (n=47). After one week therapy with 8 mg/kg/day WHI-P164 (n=12), the mean serum total cholesterol level was reduced to 551±29 mg/dL (p=0.02).\nWhen challenged with a cholesterol-rich diet, these animals developed frank hypercholesterolemia due to delayed clearance of intestinal chylomicrons which shuttle the dietary cholesterol from the intestine to the liver. In the present study, all of the 46 ApoE-deficient mice that were fed Western diet (14) became severely hypercholesterolemic with a mean serum total cholesterol level of 1491±59 mg/dL. One week WHI-P164 therapy reduced the mean serum total cholesterol level of hypercholesterolemic apo e^−/− mice to 1194±84 mg/dL (p=O.006) at a dose level of 8 mg/kg/day (n=19) and to 876±57 mg/dL (p<0.0001) at a dose level of 40 mg/kg/day (n=17) (Table 3)."}, "[3]": {"tested_on": "hypercholesterolemic C57B⅙ mice", "assay": "Serum total cholesterol in hypercholesterolemic C57B⅙ mice on Paigen's cocoa butter diet", "conditions": "1.6 mg/kg/day", "experimental": "Three- to four-week old C57B⅙ male mice (Taconic, Germantown, N.Y., USA) were kept in micro-isolator cages on a 12-hour day/night cycle and fed the Paigen's cocoa butter diet (15.8% fat, 1.25% cholesterol, and 0.5% sodium cholate) (Harlan Teklad, Madison, Wis., USA) for two weeks prior to initiation of lipid lowering therapy. Paigen's diet is described in Nishina et.al., 1993, J. Lipid Res. 34: 1413-1422.\nas §1, §2\nA high cholesterol and high fat diet was used to induce hypercholesterolemia in C57B⅙mice, using the methods described by Paigen, et al. (Nishina, et al., 1993, J. Lipid Res. 34:1413-1422) and as described for Example 1."}}, "note": "Several values for one entry are separate records, joined by “and”; a condition that tells them apart may be missing. Identical values can stand only once. Entries after “also recorded” stand apart in the source; their conditions may differ."}
{"smiles": "COc1cc2ncnc(C(=O)c3cccc(Br)c3)c2cc1OC", "note": "[WHI-P164, 4-(3′-bromobenzoyl)-6,7-dimethoxyquinazoline]", "values": [{"measurement": "Plasma TG level", "setting": "[1]; 6 hours after returning food to 36 hours fasted mice", "value": "155 ± 32", "unit": "mg/dL"}, {"measurement": "Postprandial triglyceride accumulation", "setting": "[1]; C57B⅙ mice, fasted 36 hours, versus vehicle, 40 mg/kg/day", "value": "much reduced postprandial triglyceride accumulation; also recorded: Postprandial accumulation was inhibited"}, {"measurement": "Serum total cholesterol", "setting": "[2]; apo e−/− (C57B1/6) mice, Western diet two weeks, then drug 1 week at 40 mg/kg/day, 40 mg/kg/day", "value": "876 ± 57", "unit": "mg/dL"}, {"measurement": "Mean serum total cholesterol", "setting": "[2]; Western diet", "value": "1194 ± 84", "unit": "mg/dL"}, {"measurement": "Mean serum total cholesterol", "setting": "[2]; regular rodent chow", "value": "551 ± 29", "unit": "mg/dL"}, {"measurement": "Reduction of total cholesterol levels", "setting": "[2]; hypercholesterolemic apo e−/− mice", "value": 41, "unit": "%"}, {"measurement": "Serum total cholesterol", "setting": "[3]; apo e+/+ C57B1/6 mice, cocoa butter diet two weeks, then drug 1 week at 1.6 mg/kg/day i.p.", "value": "348.6 ± 27.6 mg/dL and 349 ± 28 mg/dL"}, {"measurement": "Reduction in mean serum total cholesterol", "setting": "[3]; hypercholesterolemic C57B⅙ mice, one week, versus untreated", "value": 23, "unit": "%"}]}
